According to the CheMixHub viscosity set:

Assay: xn = mol fraction of the nth substance listed

O=C1CCCO1 + O
viscosity [mPa·s]
Details | 298.15 K | 303.15 K | 308.15 K | 313.15 K | 318.15 K | 323.15 K
101 kPa, x1 = 0.0503 | 1.233 | 1.096 | 0.9821 | 0.8569 | 0.8041 | –
101 kPa, x1 = 0.0995 | 1.481 | 1.312 | 1.171 | 1.031 | 0.9551 | –
101 kPa, x1 = 0.1997 | 1.783 | 1.577 | 1.407 | 1.248 | 1.143 | –
101 kPa, x1 = 0.2994 | 1.896 | 1.686 | 1.509 | 1.346 | 1.232 | –
101 kPa, x1 = 0.3997 | 1.915 | 1.711 | 1.538 | 1.379 | 1.266 | –
101 kPa, x1 = 0.499 | 1.875 | 1.688 | 1.528 | 1.379 | 1.273 | –
101 kPa, x1 = 0.5994 | – | 1.637 | 1.493 | 1.356 | 1.26 | –
101 kPa, x1 = 0.701 | 1.754 | 1.603 | 1.471 | 1.343 | 1.255 | –
101 kPa, x1 = 0.7995 | 1.716 | 1.578 | 1.457 | 1.337 | 1.256 | –
101 kPa, x1 = 0.8996 | 1.697 | 1.569 | 1.457 | 1.343 | 1.267 | –
101 kPa, x2 = 0.3 | 1.645 | – | – | – | – | –
101 kPa, x2 = 0.9 | 1.385 | – | – | – | – | –
101.33 kPa, x2 = 0.0898 | – | 1.56 | – | 1.339 | – | 1.163
101.33 kPa, x2 = 0.2337 | – | 1.595 | – | 1.349 | – | 1.159
101.33 kPa, x2 = 0.6207 | – | 1.674 | – | 1.349 | – | 1.112
101.33 kPa, x2 = 0.9031 | – | 1.257 | – | 1.005 | – | 0.8246

CC(C)N + O=C1CCCCC1
298.15 K, 101 kPa
Details | viscosity [mPa·s]
x2 = 0.0627 | 0.41
x2 = 0.1309 | 0.604
x2 = 0.2051 | 0.844
x2 = 0.2865 | 1.135
x2 = 0.3759 | 1.498
x2 = 0.4746 | 1.904
x2 = 0.5842 | 2.083
x2 = 0.7067 | 2.162
x2 = 0.8442 | 2.051

OCC(F)(F)F + O=C1CCCN1
viscosity [mPa·s], 101 kPa
Details | x1 = 0.3 | x1 = 0.4 | x1 = 0.5 | x1 = 0.6 | x1 = 0.7 | x1 = 0.8 | x1 = 0.9
293.15 K | 9.082 | 6.392 | 4.918 | 3.907 | 3.208 | 2.768 | 2.477
303.15 K | 6.16 | 4.724 | 3.801 | 3.071 | 2.519 | 2.146 | 1.882
313.15 K | 4.448 | 3.625 | 3.008 | 2.458 | 2.015 | 1.705 | 1.478
323.15 K | 3.389 | 2.875 | 2.431 | 1.999 | 1.64 | 1.384 | 1.194

C[N+](C)(C)CC(=O)[O-] + O=C1O[C@H]([C@@H](O)CO)C(O)=C1O
Details | viscosity [mPa·s]
298.15 K, 101.33 kPa, x2 = 0.5 | 721.2

C[N+](C)(C)CC(=O)[O-] + O=C(O)CC(O)(CC(=O)O)C(=O)O
101.3 kPa, x1 = 0.333
Details | viscosity [mPa·s]
298 K | 36920
323 K | 2775

Brc1ccccc1 + O=[N+]([O-])c1ccccc1
viscosity [mPa·s], 101 kPa
Details | x2 = 0.117 | x2 = 0.225 | x2 = 0.345 | x2 = 0.464 | x2 = 0.554 | x2 = 0.676 | x2 = 0.79 | x2 = 0.887
298.15 K | 1.106 | 1.164 | 1.227 | 1.296 | 1.352 | 1.465 | 1.556 | 1.673
303.15 K | 1.036 | 1.075 | 1.13 | 1.209 | 1.246 | 1.355 | 1.459 | 1.551
308.15 K | 0.973 | 1.015 | 1.06 | 1.117 | 1.173 | 1.251 | 1.345 | 1.423

C=CC[P+](c1ccccc1)(c1ccccc1)c1ccccc1.[Br-] + OCC(O)CO
101 kPa, x1 = 0.0667
Details | viscosity [mPa·s]
296.84 K | 1037
302.15 K | 679.9
306.82 K | 475.9
312.25 K | 314.4

C1COCCO1 + OCCO
viscosity [mPa·s], 100 kPa
Details | x1 = 0.1014 | x1 = 0.2054 | x1 = 0.2968 | x1 = 0.3998 | x1 = 0.4966 | x1 = 0.5992 | x1 = 0.7005 | x1 = 0.7985 | x1 = 0.8969
293.15 K | 15.53 | 11.26 | 8.022 | 5.534 | 3.77 | 2.758 | 2.223 | 1.737 | 1.405
298.15 K | 12.4 | 9.243 | 6.602 | 4.535 | 3.152 | 2.436 | 1.983 | 1.569 | 1.329
303.15 K | 10.21 | 7.423 | 5.425 | 3.682 | – | 2.169 | 1.78 | 1.401 | –
